Results from patent US4742053A, “3-Isoquinoliniomethyl cephalosporin derivatives” (Banyu Pharmaceutical Co., Ltd., priority 1984, dated 1988).
≈ marks a conversion by molar mass, not a printed value. Where two headings read alike, the source gives them in different places.

Tests used:
Assay in all cases: MIC by agar plate dilution method
Assay type in all cases: cell-based
P. aeruginosa AK109 = settings: 10^6 CFU/ml; for Minimum Inhibitory Concentration: P. aeruginosa AK109; for MIC: Pseudomonas aeruginosa, AK109, P. aeruginosa AK109, read-out: Minimum Inhibitory Concentration
Description: (§1) The minimum inhibitory concentrations (MIC: μg/ml) of the compounds of the present invention against various microorganisms were measured by an agar plate dilution method (inoculum size: 10^6 CFU/ml) by using Sensitivity Disk Agar (Nissui) in comparison with Cefotaxime and Ceftazidime as comparative compounds.
(§2) Minimum Inhibitory Concentration (μg/ml; 10^6 CFU/ml)

S. aureus NIHJJC-1 = settings: for MIC: Staphylococcus aureus
Description: as §1, §2

P. vulgaris OB1043 = settings: 10^6 CFU/ml; for MIC: Proteus vulgaris, OB1043, P. vulgaris OB1043, read-out: Minimum Inhibitory Concentration
Description: as §1, §2

P. vulgaris No. 33 = settings: P. vulgaris No. 33, 10^6 CFU/ml; for MIC: Proteus vulgaris, read-out: Minimum Inhibitory Concentration
Description: as §1, §2

P. mirabilis JY10 = settings: for MIC: Proteus mirabilis
Description: as §1, §2

E. coli C/Rms149 = settings: 10^6 CFU/ml; for MIC: Escherichia coli, read-out: Minimum Inhibitory Concentration, E. coli C/Rms149
Description: as §1, §2

A. calcoaceticus No. 14 = settings: 10^6 CFU/ml; for MIC: Acinetobacter calcoaceticus, NO.14, A. calcoaceticus No. 14, read-out: Minimum Inhibitory Concentration
Description: as §1, §2

S. aureus JS-1 = settings: S. aureus JS-1, 10^6 CFU/ml; for MIC: Staphylococcus aureus, JS1, read-out: Minimum Inhibitory Concentration
Description: as §1, §2

E. cloaceae Nek 39 = settings: E. cloaceae Nek 39, 10^6 CFU/ml; for MIC: read-out: Minimum Inhibitory Concentration
Description: as §1, §2

P. aeruginosa AKR17 = settings: 10^6 CFU/ml; for MIC: Pseudomonas aeruginosa, AKR17, P. aeruginosa AKR17, read-out: Minimum Inhibitory Concentration
Description: as §1, §2

E. coli W3630/Rms212 = settings: 10^6 CFU/ml; for MIC: Escherichia coli, W3630/RMS212, read-out: Minimum Inhibitory Concentration, E. coli W3630/Rms212
Description: as §1, §2

C. freundii No. 7 = settings: C. freundii No. 7, 10^6 CFU/ml; for MIC: Citrobacter freundii, read-out: Minimum Inhibitory Concentration
Description: as §1, §2

S. marcescens No. 16-2 = settings: for MIC: Serratia marcescens
Description: as §1, §2

K. pneumoniae No. 42 = settings: K. pneumoniae No. 42, 10^6 CFU/ml; for MIC: Klebsiella pneumoniae, read-out: Minimum Inhibitory Concentration
Description: as §1, §2

E. coli W3630/Rms213 = settings: 10^6 CFU/ml; for MIC: Escherichia coli, W3630/RMS213, read-out: Minimum Inhibitory Concentration, E. coli W3630/Rms213
Description: as §1, §2

E. coli NIHJJC-2 = settings: 10^6 CFU/ml; for MIC: Escherichia coli, NIHJJC2, E. coli NIHJJC-2, read-out: Minimum Inhibitory Concentration
Description: as §1, §2

E. coli CSH2 = settings: 10^6 CFU/ml; for MIC: Escherichia coli, read-out: Minimum Inhibitory Concentration
Description: as §1, §2

P. cepacia 23 = settings: P. cepacia 23, 10^6 CFU/ml; for MIC: Burkholderia cepacia, read-out: Minimum Inhibitory Concentration
Description: as §1, §2

E. coli ML1410/Rte16 = settings: 10^6 CFU/ml; for MIC: Escherichia coli, ML1410/RTE16, read-out: Minimum Inhibitory Concentration, E. coli ML1410/Rte16
Description: as §1, §2

E. coli CSH = settings: 10^6 CFU/ml; for MIC: Escherichia coli, read-out: Minimum Inhibitory Concentration
Description: as §1, §2

P. maltophilia IID 1275 = settings: Stenotrophomonas maltophilia, IID1275; P. maltophilia IID 1275; 10^6 CFU/ml; read-out: Minimum Inhibitory Concentration
Description: as §1, §2

[1] = NIHJJC1, S. aureus NIHJJC-1, 10^6 CFU/ml, read-out: Minimum Inhibitory Concentration
[2] = P. mirabilis JY10, 10^6 CFU/ml, read-out: Minimum Inhibitory Concentration
[3] = NO.162, S. marcescens No. 16-2, 10^6 CFU/ml, read-out: Minimum Inhibitory Concentration

Row | SMILES | MIC (S. aureus NIHJJC-1; [1]) [µg/mL] | MIC (P. vulgaris OB1043) [µg/mL] | MIC (P. vulgaris No. 33) [µg/mL] | MIC (P. mirabilis JY10; [2]) [µg/mL] | MIC (E. coli C/Rms149) [µg/mL] | MIC (A. calcoaceticus No. 14) [µg/mL] | MIC (S. aureus JS-1) [µg/mL] | MIC (E. cloaceae Nek 39) [µg/mL] | MIC (P. aeruginosa AKR17) [µg/mL] | MIC (E. coli W3630/Rms212) [µg/mL] | MIC (C. freundii No. 7) [µg/mL] | MIC (S. marcescens No. 16-2; [3]) [µg/mL] | MIC (K. pneumoniae No. 42) [µg/mL] | MIC (E. coli W3630/Rms213) [µg/mL] | MIC (E. coli NIHJJC-2) [µg/mL] | MIC (E. coli CSH2) [µg/mL] | MIC (P. cepacia 23) [µg/mL] | MIC (E. coli ML1410/Rte16) [µg/mL] | MIC (E. coli CSH) [µg/mL] | MIC (P. aeruginosa AK109) [µg/mL] | also measured
1 | CC(C)(O/N=C(\C(=O)NC1C(=O)N2C(C(=O)[O-])=C(C[N+]3(C)CCc4ccccc4C3)CSC12)c1csc(N)n1)C(=O)O (single isomer, unassigned) [Isomer A of Ex. 8-E, 7-[(Z)-2-(2-aminothiazol-4-yl)-2-(1-carboxy-1-methylethoxyimino)acetamido]-3-(2-methyl-1,2,3,4-tetrahydro-2-isoquinolinium)methyl-3-cephem-4-carboxylate] | 6.25 (≈ 10.2 µM) | 0.1 (≈ 0.163 µM) | 0.1 (≈ 0.163 µM) | 0.2 (≈ 0.325 µM) | 0.2 (≈ 0.325 µM) | 25 (≈ 40.7 µM) | > 25 | 1.56 (≈ 2.54 µM) | 25 (≈ 40.7 µM) | 0.39 (≈ 0.634 µM) | 1.56 (≈ 2.54 µM) | 3.12 (≈ 5.08 µM) | 0.78 (≈ 1.27 µM) | 0.39 (≈ 0.634 µM) | 0.2 (≈ 0.325 µM) | 0.1 (≈ 0.163 µM) | 6.25 (≈ 10.2 µM) | 0.2 (≈ 0.325 µM) | 0.1 (≈ 0.163 µM) |  | Minimum Inhibitory Concentration (P. aeruginosa AK109): 6.25 µg/mL
2 | CO/N=C(\C(=O)NC1C(=O)N2C(C(=O)[O-])=C(C[N+]3(C)CCc4cc(OC)c(OC)cc4C3)CSC12)c1csc(N)n1 (stereo not shown) [Ex. 2-E, 7-[(Z)-2-(2-aminothiazol-4-yl)-2-methoxyiminoacetamido]-3-(6,7-dimethoxy-2-methyl-1,2,3,4-tetrahydro-2-isoquinolinium)methyl-3-cephem-4-carboxylate] |  | 3.12 (≈ 5.18 µM) | 1.56 (≈ 2.59 µM) | 3.12 (≈ 5.18 µM) | 0.78 (≈ 1.29 µM) | > 25 | 12.5 (≈ 20.7 µM) | 12.5 (≈ 20.7 µM) | > 25 | 1.56 (≈ 2.59 µM) | 12.5 (≈ 20.7 µM) | > 25 | 1.56 (≈ 2.59 µM) | 3.12 (≈ 5.18 µM) | 0.78 (≈ 1.29 µM) | 0.2 (≈ 0.332 µM) |  | 0.78 (≈ 1.29 µM) | 1.56 (≈ 2.59 µM) | 25 (≈ 41.5 µM) | MIC (S. aureus NIHJJC-1; NIHJJC1, read-out: Minimum Inhibitory Concentration): 1.56 µg/mL (≈ 2.59 µM)
3 | CC(C)ON=C(C(=O)NC1C(=O)N2C(C(=O)[O-])=C(C[N+]3(C)CCc4cc(O)c(O)cc4C3)CSC12)c1csc(N)n1 (stereo not shown) [Ex. 13, 7-[(Z)-2-(2-aminothiazol-4-yl)-2-isopropoxyiminoacetamido]-3-(6,7-dihydroxy-2-methyl-1,2,3,4-tetrahydro-2-isoquinolinium)methyl-3-cephem-4-carboxylate] | 3.12 (≈ 5.18 µM) | 0.2 (≈ 0.332 µM) | 0.1 (≈ 0.166 µM) |  | 0.025 (≈ 0.0415 µM) | 0.2 (≈ 0.332 µM) | 12.5 (≈ 20.7 µM) | 0.006 (≈ 0.00996 µM) | 0.2 (≈ 0.332 µM) | 0.0125 (≈ 0.0207 µM) | 3.12 (≈ 5.18 µM) |  | 0.1 (≈ 0.166 µM) | 0.05 (≈ 0.083 µM) | 0.05 (≈ 0.083 µM) | 0.05 (≈ 0.083 µM) | 0.05 (≈ 0.083 µM) | 0.025 (≈ 0.0415 µM) | 0.05 (≈ 0.083 µM) | 0.05 (≈ 0.083 µM) | MIC (P. mirabilis JY10; JY10, read-out: Minimum Inhibitory Concentration): 0.39 µg/mL (≈ 0.647 µM); MIC (S. marcescens No. 16-2; NO.162, read-out: Minimum Inhibitory Concentration): 1.56 µg/mL (≈ 2.59 µM); MIC (P. maltophilia IID 1275): 12.5 µg/mL (≈ 20.7 µM)
4 | CC(C)(O/N=C(\C(=O)NC1C(=O)N2C(C(=O)[O-])=C(C[N+]3(C)CCc4ccccc4C3)CSC12)c1csc(N)n1)C(=O)O (single isomer, unassigned) [Isomer B of Ex. 8-E, 7-[(Z)-2-(2-aminothiazol-4-yl)-2-(1-carboxy-1-methylethoxyimino)acetamido]-3-(2-methyl-1,2,3,4-tetrahydro-2-isoquinolinium)methyl-3-cephem-4-carboxylate] |  |  |  |  |  |  |  |  |  |  |  |  |  |  |  |  |  |  |  |  | Minimum Inhibitory Concentration (P. aeruginosa AK109): 3.12 µg/mL; Minimum Inhibitory Concentration (S. aureus NIHJJC-1; S. aureus NIHJJC-1, 10^6 CFU/ml): 12.5 µg/mL; Minimum Inhibitory Concentration (P. vulgaris OB1043; P. vulgaris OB1043): 0.2 µg/mL; Minimum Inhibitory Concentration (P. vulgaris No. 33): 0.1 µg/mL; Minimum Inhibitory Concentration (P. mirabilis JY10; P. mirabilis JY10, 10^6 CFU/ml): 0.2 µg/mL; Minimum Inhibitory Concentration (E. coli C/Rms149; E. coli C/Rms149): 0.39 µg/mL; Minimum Inhibitory Concentration (A. calcoaceticus No. 14; A. calcoaceticus No. 14): > 25 µg/mL; Minimum Inhibitory Concentration (S. aureus JS-1): > 25 µg/mL; Minimum Inhibitory Concentration (E. cloaceae Nek 39): 3.12 µg/mL; Minimum Inhibitory Concentration (P. aeruginosa AKR17; P. aeruginosa AKR17): > 25 µg/mL; Minimum Inhibitory Concentration (E. coli W3630/Rms212; E. coli W3630/Rms212): 0.78 µg/mL; Minimum Inhibitory Concentration (C. freundii No. 7): 1.56 µg/mL; Minimum Inhibitory Concentration (S. marcescens No. 16-2; S. marcescens No. 16-2, 10^6 CFU/ml): 3.12 µg/mL; Minimum Inhibitory Concentration (K. pneumoniae No. 42): 0.78 µg/mL; Minimum Inhibitory Concentration (E. coli W3630/Rms213; E. coli W3630/Rms213): 0.78 µg/mL; Minimum Inhibitory Concentration (E. coli NIHJJC-2; E. coli NIHJJC-2): 0.39 µg/mL; Minimum Inhibitory Concentration (E. coli CSH2): 0.1 µg/mL; Minimum Inhibitory Concentration (P. cepacia 23): 6.25 µg/mL; Minimum Inhibitory Concentration (E. coli ML1410/Rte16; E. coli ML1410/Rte16): 0.39 µg/mL; Minimum Inhibitory Concentration (E. coli CSH): 0.2 µg/mL
5 | CO/N=C(\C(=O)NC1C(=O)N2C(C(=O)[O-])=C(C[N+]3(C)CCc4ccccc4C3)CSC12)c1csc(N)n1 (stereo not shown) [Ex. 1-B, 7-[(Z)-2-(2-aminothiazol-4-yl)-2-methoxyiminoacetamido]-3-(2-methyl-1,2,3,4-tetrahydro-2-isoquinolinium)methyl-3-cephem-4-carboxylate] | 0.78 (≈ 1.44 µM) | 0.78 (≈ 1.44 µM) | 0.2 (≈ 0.369 µM) | 0.78 (≈ 1.44 µM) | 0.1 (≈ 0.184 µM) | 25 (≈ 46.1 µM) | 3.12 (≈ 5.75 µM) | 1.56 (≈ 2.87 µM) | > 25 | 0.2 (≈ 0.369 µM) | 1.56 (≈ 2.87 µM) | 6.25 (≈ 11.5 µM) | 0.2 (≈ 0.369 µM) | 1.56 (≈ 2.87 µM) | 0.1 (≈ 0.184 µM) | 0.05 (≈ 0.0921 µM) |  |  | 0.2 (≈ 0.369 µM) | 6.25 (≈ 11.5 µM) | 
6 | CCO/N=C(\C(=O)NC1C(=O)N2C(C(=O)[O-])=C(C[N+]3(C)CCc4ccccc4C3)CSC12)c1csc(N)n1 (stereo not shown) [Ex. 7-D, 7-[(Z)-2-(2-aminothiazol-4-yl)-2-ethoxyiminoacetamido]-3-(2-methyl-1,2,3,4-tetrahydro-2-isoquinolinium)methyl-3-cephem-4-carboxylate] | 0.39 (≈ 0.701 µM) | 0.78 (≈ 1.4 µM) | 0.39 (≈ 0.701 µM) | 3.12 (≈ 5.6 µM) | 0.39 (≈ 0.701 µM) | 25 (≈ 44.9 µM) | 6.25 (≈ 11.2 µM) | 3.12 (≈ 5.6 µM) | > 25 | 0.78 (≈ 1.4 µM) | 3.12 (≈ 5.6 µM) | 6.25 (≈ 11.2 µM) | 0.78 (≈ 1.4 µM) | 0.78 (≈ 1.4 µM) | 0.39 (≈ 0.701 µM) | 0.1 (≈ 0.18 µM) | 6.25 (≈ 11.2 µM) | 0.39 (≈ 0.701 µM) | 0.2 (≈ 0.359 µM) | 6.25 (≈ 11.2 µM) | 
